{
  "source": "patent US20100203110A1",
  "about": "“Therapeutics for Cancer Using 3-Bromopyruvate and Other Selective Inhibitors of ATP Production” (The Johns Hopkins University, priority 2006, published 2010)",
  "key": {"VX2 tumor [1]": {"test_system": "VX2 tumor", "experiment": "PET/CT imaging and histopathology after 1-hour intraarterial infusion", "assay_type": "in vivo, rabbit", "experimental": "To further confirm the tumor destruction using 3-bromopyruvate, Positron Emission Tomography (PET)/CT imaging was conducted in rabbits before and after a single 1-hour intraarterial (infusion) therapy with 3-bromopyruvate. […] Since 3-bromopyruvate acts extremely quickly, PET/CT images were obtained within 2 hours of therapy to examine the process of making a decision regarding immediate re-treatment. After the PET/CT images were obtained, the 2 rabbits were sacrificed, their liver explanted and submitted for histopathologic analysis. Various staining methods that the tumor was completely (100%) dead and that the mechanism of cell death was apoptotic, thus confirming the use of PET imaging in assessing tumor response."}, "HepG2 [2]": {"test_system": "HepG2", "experiment": "ATP levels after treatment, HepG2", "assay_type": "cell-based, human", "conditions": "0.1, 0.2, 0.3 mM for 1 and 3 hours", "experimental": "ATP levels were measured in various cell lines, e.g., HepG2, Sk-Hep1, and Vx-2 after 3-bromopyruvate treatment. In each case, cells were treated with increasing concentration of 3-bromopyruvate (0.1 mM, 0.2 mM, and 0.3 mM) for 1 and 3 hours before measuring ATP levels in the cell. FIGS. 5 (A-C) show the ATP depletion observed following 3-bromopyruvate treatment in HepG2, Sk-Hep1, and Vx-2 cell lines, respectively."}, "VX2 tumor [3]": {"test_system": "VX2 tumor", "experiment": "FDG uptake in orthotopic rabbit model of liver cancer, IA versus IV", "assay_type": "in vivo", "experimental": "To develop a new therapeutic strategy to cure patients with hepatocellular carcinoma, a similar series of experiments was conducted on the orthotopic rabbit model of liver cancer (VX2). The effects of 3-bromopyruvate injected intraarterially (IA) was compared to those of 3-bromopyruvate injected intravenously (N) on FDG uptake in the VX2 tumor. The optimal dose of 3-bromopyruvate for both IA and N administration was then determined through an extensive dose-response analysis. In the IA group, 3-bromopyruvate was infused over one hour, FDG injected at the 30-minute mark and all animals were then sacrificed one hour after the FDG injection. Tumors and all major organs were removed, weighed and analyzed in a gamma counter."}, "VX2 [4]": {"test_system": "VX2", "experiment": "Cell viability, VX2", "assay_type": "cell-based, rabbit", "conditions": "1 mM for 3 hour", "experimental": "(§1) Caspase-3 activity and reduced cell viability was also measured in cell lines (HepG2, THLE-2, and VX2 cell lines) following 3-bromopyruvate treatment (1 mM for 3 hour) (FIG. 6A). Caspase-3 activity increased in each cell line following treatment and cell viability decreased following treatment. An increase in caspase-3 activity indicated the mechanism of cell death is apoptotic. FIGS. 6 B and C show cell viability is reduced in each cell line with increasing 3-bromopyruvate concentration after 1 and 3 hours of treatment."}, "HepG2 [5]": {"test_system": "HepG2", "experiment": "Cell viability, HepG2", "assay_type": "cell-based, human", "conditions": "1 mM for 3 hour", "experimental": "as §1"}, "[6]": {"test_system": "liver implanted VX2 tumors", "experiment": "Single direct intraarterial bolus injection into liver implanted VX2 tumors, histology", "assay_type": "in vivo, rabbit", "text": "The rabbit VX2 tumor was selected for implantation in the liver because of the similarities of its blood supply to that of human hepatomas. Other attributes of this tumor include rapid tumor growth, development of a sizable tumor that can be readily identified by x-ray imaging (fluoroscopy), and a biochemical phenotype characteristic of advanced stage tumors, i.e., high glycolysis and elevated levels of mitochondrial bound hexokinase. In addition, the rabbit is large enough that selective manipulation of catheters in the hepatic artery from the common femoral artery for delivery of agents is possible. Adult New Zealand white rabbits (32 total, Robinson Services, Inc.) weighing 3.5-4.2 kg were used. Studies with these animals were approved by the Johns Hopkins University Animal Care and Use Committee and carried out according to their guidelines. For successful implantation of the VX2 tumor into the liver, it was first grown for 2 weeks on the hind leg of a carrier rabbit. Each carrier rabbit was used to supply tumor cells for implantation into the left lobe of the liver of 2 separate rabbits. All animals, carriers and recipients, were anesthetized with a mixture of acepromazine (2.5 mg/kg) and ketamine hydrochloride (44 mg/kg) administered intramuscularly. Intravenous access was gained via a marginal ear vein and sodium pentothal was given intravenously to maintain anesthesia. The VX2 tumor was then excised from the carrier rabbit and placed in Hanks solution. Chunks of the tumor were minced in the same solution. Then, the abdomens of the recipient rabbits were shaved and prepped with betadine after which a midline subxyphoid incision was made. The anterior surface of the liver was exposed and tumor cells (0.1-0.2 ml) from the minced donor tumor were directly implanted onto the left lobe of the liver using the outer cannula of a 21-gauge angiocatheter. This method allows the growth of a single solitary, well-demarcated tumor in the liver of each recipient rabbit. The abdomen was closed in 2 layers. Proper aseptic technique was rigorously observed during each implantation. After surgery, animals were returned to their cages, kept warm with blankets, and monitored in the animal laboratory under the direct supervision of a physician or a technician until they recovered from anesthesia. […] The tumors were allowed to grow for another 14 days at which time they reached an ellipsoidal shape with dimension of approximately 1.5×1.8×2.5 cm.\nThe solutions of 3-bromopyruvate (3-BrPA, Sigma Chemical Co., St. Louis, Mo.) were prepared in phosphate-buffered saline (PBS). After adjusting the pH to 7.0 with NaOH the solutions were sterilized via Millipore's Millexâ GV 0.22 mm filter unit and used immediately. Freshly made solutions were used in all studies reported here.\nAdministration of anesthesia, intravenous access and sodium pentothal anesthesia were carried out as described in Example 12. Transcatheter hepatic artery injection of 3-BrPA was performed under fluoroscopy. The animals were brought to the angiography suite and intubated using a size 3.0 mm endotracheal tube (Mallinkrodt Medical, St. Louis, Mo.) but not ventilated. Surgical cut-down was performed to gain access into the right common femoral artery, after which a 3 French sheath (Cook Inc., Bloomington, Ind.) was placed. A specially manufactured 2 French catheter with a tip in the shape of a hockey-stick (JB1 catheter, Cook Inc., Bloomington, Ind.) was manipulated into the celiac axis after which a celiac arteriogram was performed in order to delineate the blood supply to the liver and confirm the location of the tumor. The tumor could readily be visualized as a region of hypervascular blush located on the left side of the liver near the gastric fundus. The left hepatic artery, which usually provides most of the blood flow to the tumor, was selectively catheterized via the common hepatic artery. […]"}, "THLE-2": {"test_system": "THLE-2", "experiment": "Cell viability, THLE-2", "assay_type": "cell-based", "conditions": "1 mM for 3 hour", "experimental": "as §1"}, "VX2 [7]": {"test_system": "VX2", "experiment": "Caspase-3 activity, VX2", "assay_type": "cell-based, rabbit", "conditions": "1 mM for 3 hour", "experimental": "as §1"}, "[8]": {"conditions": "IA group, infused over one hour"}, "[9]": {"conditions": "single intraarterial injection, 4 days"}},
  "note": "“Also recorded” adds a separate entry of the source.",
  "data": [
    {"smiles": "O=C(O)C(=O)CBr", "note": "[3-bromopyruvate]", "values": [
      {"measurement": "tumor activity on post-treatment PET/CT scans", "setting": "VX2 tumor [1]; 2 hours after single 1-hour intraarterial infusion", "result": "complete disappearance of tumor activity"},
      {"measurement": "tumor death by histopathology", "setting": "VX2 tumor [1]; after single 1-hour intraarterial infusion", "result": 100, "unit": "%"},
      {"measurement": "mechanism of cell death", "setting": "VX2 tumor [1]; histopathologic staining", "result": "apoptotic"},
      {"measurement": "ATP levels", "setting": "HepG2 [2]", "result": "ATP depletion"},
      {"measurement": "FDG uptake in any other organs", "setting": "VX2 tumor [3]; [8]", "result": "No difference in uptake"},
      {"measurement": "reduction of FDG uptake in the tumor", "setting": "VX2 tumor [3]; [8]", "result": 80, "unit": "%"},
      {"measurement": "FDG uptake in other organs", "setting": "VX2 tumor [3]; N (intravenous) group", "result": "decreases in FDG uptake were also recorded in the lung, brain and liver"},
      {"measurement": "decrease of FDG uptake in the tumor", "setting": "VX2 tumor [3]; N (intravenous) group", "result": 30, "unit": "%"},
      {"measurement": "cell viability", "setting": "VX2 [4]", "result": "decreased"},
      {"measurement": "cell viability", "setting": "HepG2 [5]", "result": "decreased"},
      {"measurement": "damage to 9 major tissues", "setting": "[6]; 4 days after single intraarterial injection", "result": "In no case was there evidence for damage"},
      {"measurement": "damage to portal veins, sinusoids, bile ducts and arteriolar complexes", "setting": "[6]; much higher concentrations (5 mM), intraarterial", "result": "only apparent damage occurring occasionally in the peribiliary arteriolar complexes"},
      {"measurement": "necrosis (non-viable cells) in tumor sections outside the central core", "setting": "[6]; single IA bolus 25 ml 0.5 mM, 4 days", "result": "~100", "unit": "%"},
      {"measurement": "total number of viable cells in liver implanted tumors, lowest reached", "setting": "[6]; single injection", "result": 10, "unit": "%"},
      {"measurement": "maximal number of non-viable cells observed in any one experiment", "setting": "[6]; single intraarterial injection", "result": 90, "unit": "%"},
      {"measurement": "total number of non-viable cells in the tumor population", "setting": "[6]; [9]", "result": "84±5", "unit": "%"},
      {"measurement": "viable cells in the entire tumor population", "setting": "[6]; [9]", "result": "16±5", "unit": "%"},
      {"measurement": "viability / damage of surrounding liver tissue", "setting": "[6]; single intraarterial injection, 4 days, listed as 3-BrPA", "result": "no damage; also recorded: remained completely viable"},
      {"measurement": "cell viability", "setting": "THLE-2", "result": "decreased"},
      {"measurement": "Caspase-3 activity", "setting": "VX2 [7]", "result": "increased"}
    ]}
  ]
}
